According to patent publication US11285189B2, “Compositions and uses of locally-applied antimicrobial synthetic cationic polypeptide(s) with enhanced performance and safety” (priority 2017, dated 2022):

Key:
[1] = Surface tension, Du Nouy ring; assay type: physicochemical; settings: samples at 0.1 mM, room temperature
Procedure: Samples were prepared at 0.1 mM and assessed using TA.XT2 Texture Analyzer with a 500 g load cell, 5 cm diameter Du Nouy ring and probe speed of 0.2 mm/s at room temperature.
Surface tension of various preparations of synthetic cationic polypeptide(s) in water. Samples were prepared at 0.1 mM and assessed using TA.XT2 Texture Analyzer with a 500 g load cell, 5 cm diameter Du Nouy ring and probe speed of 0.2 mm/s at room temperature.
Surface tension: effect of acetic acid as an additive.

[2] = Kinematic viscosity, glass capillary (Ubbelohde) viscometers, 37° C.; assay type: physicochemical; settings: 1 and 2 wt %
Procedure: FIGS. 13A-B. (a) Kinematic viscosity of various synthetic cationic polypeptide(s) in water at 1 wt % and measured using glass capillary viscometers (Ubbelohde viscometers) at a temperature of 37° C. (b) Kinematic viscosity of KrL-100/5.7 (lot BAC02) vs. bovine serum albumin; water is provided for reference.
FIG. 14. Kinematic viscosity of synthetic cationic polypeptide(s) with a lysine-L-leucine block sequence arrangement (KL) in water at 0.5 wt % and measured using glass capillary viscometers (Ubbelohde viscometers) at a temperature of 37° C.
FIG. 13A depicts kinematic viscosity values of various synthetic cationic polypeptide(s) in water at 1 wt % as measured using glass capillary viscometers (Ubbelohde viscometers). […] Albumin is an abundant blood protein and has a molecular weight of approximately 66.5 kDa and total chain length of approximately 583 amino acids units.
The latter has a longer overall chain length, a similar sized hydrophobic block, but a different composition of hydrophobic amino acid units (racemic D,L-leucine vs. enantiopure L-leucine).

Molecule | effect on surface tension of water [1] | effect on viscosity of aqueous preparations [2]
[H]/N=C(\N/C(=N/[H])NCCCCCCNC(=N)NC(=N)Nc1ccc(Cl)cc1)Nc1ccc(Cl)cc1 [chlorhexidine, chlorhexidine gluconate] | little or no effect | –
bovine serum albumin: abundant blood protein, approximately 66.5 kDa, approximately 583 amino acid units | – | little, if any effect on viscosity
polyhexamethylene biguanide [PHMB] | little or no effect | –
